Results: PMC6277555, “Short Symmetric-End Antimicrobial Peptides Centered on β-Turn Amino Acids Unit Improve Selectivity and Stability” (Frontiers in Microbiology, 2018)
No end group written: not given here.

Legend:
E. coli ATCC25922 = type: cell-based, Escherichia coli; conditions: for MIC / MIC, CaCl2 / MIC, Control / MIC, FeCl3 / MIC, Heat (100°C) / MIC, KCl / MIC, MgCl2 / MIC, NH4Cl / MIC, NaCl / MIC, ZnCl2: ATCC25922; for MIC, pH 4.0: ATCC25922, pH 4; for MIC, pH 6.0: ATCC25922, pH 6; for MIC, pH 8.0: ATCC25922, pH 8; for MIC, pH 10.0: ATCC25922, pH 10
Description: (§1) The minimal inhibitory concentration (MIC) was determined according to a previously described method ([Chou et al., 2016]). Bacteria were cultured overnight to mid-log phase in MHB at 37°C and then diluted to give final concentrations ranging from 2 × 10^5 to 7 × 10^5 CFU/mL. Then, 50 μL of serial twofold dilutions of the peptides were added to each well in 96-well microtiter plates with a mixed solution containing 0.01% acetic acid and 0.2% bovine serum albumin (BSA, Sigma) was used to dissolve and dilute the peptides. Then, equal amounts of bacterial aliquots were incubated with the above peptide solution for 18-24 h at 37°C. The experiment was performed in triplicate using three replicates for each peptide and each bacterium. The broth was employed as a negative control and the broth with microbial cells was used as a positive control. The lowest concentration of peptide that prevented visible turbidity was defined as the MIC. The condition sensitivity of peptides was tested in an MIC assay in different environments, including salt sensitivity, thermal sensitivity and different pH values similar to our previous method ([[…] et al., 2008]; [Ma et al., 2012]). […] For the heat resistance experiments, the peptides were incubated at 100°C for 30 min and cooled on ice for 10 min. […] The determination methods for these MIC assays were same as described above. To test the effects of serum on the antimicrobial activities of the peptides, human serum was dissolved in MHB to reach final concentrations of 25 and 50%. The determination methods for these MIC assays were same as described above.

S. typhimurium ATCC 7731 = type: cell-based, Salmonella entericaserovar Typhimurium
Description: (§2) The minimal inhibitory concentration (MIC) was determined according to a previously described method ([Chou et al., 2016]). Bacteria were cultured overnight to mid-log phase in MHB at 37°C and then diluted to give final concentrations ranging from 2 × 10^5 to 7 × 10^5 CFU/mL. Then, 50 μL of serial twofold dilutions of the peptides were added to each well in 96-well microtiter plates with a mixed solution containing 0.01% acetic acid and 0.2% bovine serum albumin (BSA, Sigma) was used to dissolve and dilute the peptides. Then, equal amounts of bacterial aliquots were incubated with the above peptide solution for 18–24 h at 37°C. The experiment was performed in triplicate using three replicates for each peptide and each bacterium. The broth was employed as a negative control and the broth with microbial cells was used as a positive control. The lowest concentration of peptide that prevented visible turbidity was defined as the MIC.

[1] = RP-HPLC retention time as measure of relative hydrophobicity; type: physicochemical; conditions: analytical RP-HPLC; hydrophobicity increases with retention time
Description: These peptides' […] identified via matrix-assisted laser desorption/ionization time-of-flight mass spectrometry (MALDI-TOF MS, Linear Scientific Inc., United States), using α-cyano-4-hydroxycinnamic acid as the matrix. […] Quantitative peptides were dissolved in deionized water and stored at -20°C before the assessments. The rest of the peptides were stored as powders at -20°C to prevent peptide degradation. The structures and molecular weights of the peptides were verified by MALDI-TOF MS. […] The relative hydrophobicity of the symmetric-end peptides was reliably reflected by their different HPLC retention times, and the hydrophobicity increased with increasing HPLC retention times ([Lee et al., 2014]; [Zhu et al., 2014]). The HPLC retention times for […]

S. aureus ATCC 29213 = type: cell-based, Staphylococcus aureus; conditions: for MIC / MIC, CaCl2 / MIC, Control / MIC, FeCl3 / MIC, Heat (100°C) / MIC, KCl / MIC, MgCl2 / MIC, NH4Cl / MIC, NaCl / MIC, ZnCl2: ATCC 29213; for MIC, pH 4.0: ATCC 29213, pH 4; for MIC, pH 6.0: ATCC 29213, pH 6; for MIC, pH 8.0: ATCC 29213, pH 8; for MIC, pH 10.0: ATCC 29213, pH 10
Description: as §1

[2] = test system: S. epidermidis ATCC 12228; type: cell-based, Staphylococcus epidermidis
Description: as §2

E. coli UB1005 = type: cell-based, Escherichia coli
Description: as §2

S. aureus = assay: Time killing assay; type: cell-based, Staphylococcus aureus; conditions: mean of three independent assays
Description: (§3) The ability of peptides to kill bacterial cells was further investigated by analyzing the fraction of cell survival upon peptide treatment at various exposure times according to a previously described method ([Wiradharma et al., 2012]). Briefly, E. coli and S. aureus were treated at MIC and 2 × MIC concentrations with peptides. At various time periods (0, 5, 10, 30, 60, 90, 120, and 150 min), microbial suspensions were diluted at three different dilutions and plated on MHA plates. Microbial colonies were formed and counted after 24 h of incubation. The results were presented as the mean data from three independent assays.

B. pyocyaneum ATCC 27853 = type: cell-based, Bacterium pyocyaneum
Description: as §2

E. coli = assay: Time killing assay; type: cell-based, Escherichia coli; conditions: mean of three independent assays
Description: as §3

S. aureus ATCC 43300 = type: cell-based, Staphylococcus aureus
Description: as §2

S. pullorum C79-13 = type: cell-based, Salmonella pullorum
Description: as §2

B. subtilis CMCC 63501 = type: cell-based, Bacillus subtilis
Description: as §2

S. faecalis ATCC 29212 = type: cell-based, Streptococcus faecalis
Description: as §2

[3] = test system: Gram-negative and Gram-positive bacterial strains; assay: Geometric mean of MICs and therapeutic index; type: cell-based; conditions: for GM (geometric mean of the MIC values): all ten tested strains; for Therapeutic index: from MHC and GM
Description: (§4) The hemolytic activity of the peptides was detected using a previously described modified method ([Wang et al., 2015]). One milliliter of fresh hRBCs was obtained from a healthy donor (Zhihua Wang, Harbin, China) in a polycarbonate tube containing heparin. The collected hRBCs were centrifuged at 1000 × g for 5 min at 4°C and resuspended in PBS buffer (pH 7.2). The hRBCs were washed three times and then incubated with an equal volume of the respective peptide dissolved in PBS for 1 h at 37°C. Then, the hRBC suspension was placed into a 96-well microtiter plater with 50 μL of tested peptide solution at different concentrations and the mixture was incubated for 1 h at 37°C. […] The minimum hemolytic concentrations (MHCs) were defined as the peptide concentrations resulting in 5% hemolysis.
as §2

hRBCs = assay: Hemolytic activity; type: cell-based, human; conditions: peptide concentration resulting in 5% hemolysis of hRBCs; PBS, 1 h, 37°C
Description: as §4

CC(C)C[C@H](NC(=O)[C@H](CCCNC(=N)N)NC(=O)CNC(=O)CNC(=O)[C@@H](N)CCCNC(=N)N)C(=O)N[C@H]1CSSC[C@@H](C(=O)N[C@H](C(=O)NCC(=O)N[C@@H](CCCNC(=N)N)C(N)=O)C(C)C)NC(=O)[C@H](C(C)C)NC(=O)[C@@H]2CSSC[C@H](NC(=O)[C@H](Cc3ccc(O)cc3)NC1=O)C(=O)N[C@@H](CCCNC(=N)N)C(=O)N[C@@H](CCCNC(=N)N)C(=O)N[C@@H](CCCNC(=N)N)C(=O)N[C@@H](Cc1ccccc1)C(=O)N2 [PG-1, reference compound]
2 µM: MIC (E. coli ATCC25922) | MIC, Control (E. coli ATCC25922) | MIC, KCl (E. coli ATCC25922) | MIC, MgCl2 (E. coli ATCC25922) | MIC, NH4Cl (E. coli ATCC25922) | MIC, ZnCl2 (E. coli ATCC25922) | MIC (E. coli UB1005) | MIC (S. aureus ATCC 43300) | MIC (S. pullorum C79-13)
5 min: Time to kill S. aureus (S. aureus; peptide at 1 × MIC)
8 µM: MIC, Heat (100°C) (E. coli ATCC25922) | MIC (S. typhimurium ATCC 7731) | MIC (S. aureus ATCC 29213) | MIC, Control (S. aureus ATCC 29213) | MIC, FeCl3 (S. aureus ATCC 29213) | MIC, KCl (S. aureus ATCC 29213) | MIC, MgCl2 (S. aureus ATCC 29213) | MIC, NH4Cl (S. aureus ATCC 29213) | MIC, ZnCl2 (S. aureus ATCC 29213) | MIC (B. subtilis CMCC 63501)
8 μM: MIC, pH 4.0 (S. aureus ATCC 29213) | MIC, pH 6.0 (S. aureus ATCC 29213) | MIC, pH 8.0 (S. aureus ATCC 29213)
32 µM: MIC, NaCl (S. aureus ATCC 29213)
4 µM: MIC, CaCl2 (E. coli ATCC25922) | MIC, FeCl3 (E. coli ATCC25922) | MIC, NaCl (E. coli ATCC25922)
10 min: Time to kill S. aureus (S. aureus; peptide at 2 × MIC) | Time to kill E. coli (E. coli; peptide at 1 × MIC) | Time to kill E. coli (E. coli; peptide at 2 × MIC)
16 μM: MIC, pH 10.0 (S. aureus ATCC 29213)
16 µM: MIC, CaCl2 (S. aureus ATCC 29213) | MIC, Heat (100°C) (S. aureus ATCC 29213) | MIC [2] | MIC (B. pyocyaneum ATCC 27853) | MIC (S. faecalis ATCC 29212)
12.56 min: Retained time (HPLC retention time) [1]
4 μM: MIC, pH 4.0 (E. coli ATCC25922) | MIC, pH 6.0 (E. coli ATCC25922) | MIC, pH 8.0 (E. coli ATCC25922) | MIC, pH 10.0 (E. coli ATCC25922)

IHFKWRRWKFHI-NH2 [Qna]
34.3 µM: GM (geometric mean of the MIC values) [3]
7.5: Therapeutic index [3]
16 µM: MIC (E. coli UB1005)
64 µM: MIC (B. subtilis CMCC 63501) | MIC (S. faecalis ATCC 29212)
>128 µM: MHC (minimum hemolytic concentration) (hRBCs)
32 µM: MIC (E. coli ATCC25922) | MIC (S. typhimurium ATCC 7731) | MIC (S. aureus ATCC 29213) | MIC [2] | MIC (B. pyocyaneum ATCC 27853) | MIC (S. aureus ATCC 43300) | MIC (S. pullorum C79-13)

IHKFWRGGRWFKHI-NH2 [GG]
8 µM: MIC (E. coli ATCC25922) | MIC (E. coli UB1005) | MIC (S. pullorum C79-13)
10.24 min: Retained time (HPLC retention time) [1]
64 µM: MIC (S. typhimurium ATCC 7731)
16 µM: MIC (S. aureus ATCC 29213) | MIC (B. pyocyaneum ATCC 27853) | MIC (B. subtilis CMCC 63501)
32 µM: MIC [2] | MIC (S. aureus ATCC 43300) | MIC (S. faecalis ATCC 29212)

IHKFWRPGRWFKHI-NH2 [PP]
32.0: Therapeutic index [3]
128 µM: MIC, NaCl (S. aureus ATCC 29213)
8.0 µM: GM (geometric mean of the MIC values) [3]
4 µM: MIC, CaCl2 (E. coli ATCC25922) | MIC, FeCl3 (E. coli ATCC25922) | MIC, KCl (E. coli ATCC25922) | MIC, ZnCl2 (S. aureus ATCC 29213) | MIC (E. coli UB1005) | MIC (B. pyocyaneum ATCC 27853) | MIC (S. pullorum C79-13)
8 µM: MIC (E. coli ATCC25922) | MIC, Control (E. coli ATCC25922) | MIC, Heat (100°C) (E. coli ATCC25922) | MIC, NaCl (E. coli ATCC25922) | MIC (S. typhimurium ATCC 7731) | MIC, FeCl3 (S. aureus ATCC 29213) | MIC, NH4Cl (S. aureus ATCC 29213) | MIC (B. subtilis CMCC 63501) | MIC (S. faecalis ATCC 29212)
16 µM: MIC (S. aureus ATCC 29213) | MIC, Control (S. aureus ATCC 29213) | MIC, Heat (100°C) (S. aureus ATCC 29213) | MIC, KCl (S. aureus ATCC 29213) | MIC, MgCl2 (S. aureus ATCC 29213) | MIC [2] | MIC (S. aureus ATCC 43300)
>128 µM: MHC (minimum hemolytic concentration) (hRBCs)
32 µM: MIC, CaCl2 (S. aureus ATCC 29213)
8 μM: MIC, pH 4.0 (E. coli ATCC25922) | MIC, pH 6.0 (E. coli ATCC25922) | MIC, pH 10.0 (E. coli ATCC25922)
2 µM: MIC, MgCl2 (E. coli ATCC25922) | MIC, NH4Cl (E. coli ATCC25922) | MIC, ZnCl2 (E. coli ATCC25922)
16 μM: MIC, pH 8.0 (E. coli ATCC25922) | MIC, pH 4.0 (S. aureus ATCC 29213) | MIC, pH 6.0 (S. aureus ATCC 29213) | MIC, pH 8.0 (S. aureus ATCC 29213) | MIC, pH 10.0 (S. aureus ATCC 29213)

IHKFWRRWFKHI-NH2 [Qa]
32 µM: MIC (B. subtilis CMCC 63501)
17.2: Therapeutic index [3]
8 µM: MIC (S. aureus ATCC 29213) | MIC (E. coli UB1005)
>128 µM: MHC (minimum hemolytic concentration) (hRBCs)
16 µM: MIC (E. coli ATCC25922) | MIC (S. typhimurium ATCC 7731) | MIC [2] | MIC (B. pyocyaneum ATCC 27853) | MIC (S. aureus ATCC 43300) | MIC (S. pullorum C79-13) | MIC (S. faecalis ATCC 29212)
14.9 µM: GM (geometric mean of the MIC values) [3]
